Measurements from US20020001582A1, “Methods and compositions for inhibiting microbial growth” (priority 1999, published 2002).

Experiments:
Format in all cases: cell-based
[1] = test system: IM115 (Monilinia); test: Inhibition of Monilinia by lysozyme in PD broth, % plate coverage
Method: (§1) Monilinia was grown in petri dishes on PD agar. Potato dextrose broth was prepared, poured into glass dilution bottles (100 ml each), autoclaved and allowed to cool. […] A fungal square (plug) of each culture was cut and placed in/near the center of each plate. Fungal growth was quantified by measuring the diameter of growth of each fungus while it was growing on the liquid media in each petri dish using a ruler. Each treatment was done with triplicates. The experiment was repeated three times (three batches). The observation period for each batch was 2 weeks.
(§2) The fungal growth was expressed in % coverage of the petri dishes by the fungal patches. The calculation is presented in the following equation:
(§3) Fungal growth (%)=(area of fungal patch/total plate area)×100
(§4) The average plate coverage for the treatments was plotted against the time after inoculation (FIGS. 20 and 21). Statistical analysis was carried out using SigmaStat (Version 2.0, SPSS Science, 1997).

[2] = test system: IM114 (Monilinia); test: as above
Method: as §1, §2, §3, §4

[3] = test system: Fusarium; test: Lysozyme against Fusarium, plug in PD broth
Method: PD broth was prepared and autoclaved in dilution bottles (100 ml) and allowed to cool. Required amounts of lysozyme were added into the bottles and dissolved. […] A square of Fusarium (5-10 mm square “plug”) was cut and placed in/near the center of each dish. The plates were incubated at room temperature for 2 weeks. The trial was carried out in triplicate and was repeated three times.
The fungal growth was quantified by measuring the diameter of Fusarium growth and the coverage of the plates by the fungus. The measurements (given in mm) also include the size of the inoculum plug inserted into the plate of media. The color change and the change in the physical appearance (fuzzy, not fuzzy) were also monitored. The Fusarium growth is pink to dark pink. All the numbers shown are the averages of three replicates for each treatment. The diameter of the plate was approximately 85 mm.

lysozyme: type c egg white lysozyme, enzyme of approximately 129 amino acids; commercially available from Canadian Inovatech, Inc.
concentration that can significantly inhibit the growth for at least 2 weeks ([1]; in general, in vitro, PD broth): 250-500 ppm
concentration showing significant fungal growth reduction ([1]; p<0.05): 100 ppm
concentration that can significantly inhibit the growth for at least 2 weeks ([2]; in general, in vitro, PD broth): 250-500 ppm
concentration showing significant fungal growth reduction ([2]; p<0.05): 100 ppm
Fusarium growth ([3]; 250 ppm, broth turned yellow after 10 days): quite limited
diameter of Fusarium growth ([3]; Batch 1, 25 ppm, day 0 (inoculum plug)): 9.3 mm
growth, color and physical appearance ([3]; Batch 1, 25 ppm, day 4): Confluent, pink
growth, color and physical appearance ([3]; Batch 1, 25 ppm, day 7): Confluent, dark
growth, color and physical appearance ([3]; Batch 1, 25 ppm, day 11): Confluent, dark
diameter of Fusarium growth ([3]; Batch 1, 50 ppm, day 0 (inoculum plug)): 9.7 mm
growth, color and physical appearance ([3]; Batch 1, 50 ppm, day 4): Confluent, pink
growth, color and physical appearance ([3]; Batch 1, 50 ppm, day 7): Confluent, dark
growth, color and physical appearance ([3]; Batch 1, 50 ppm, day 11): Confluent, dark
diameter of Fusarium growth ([3]; Batch 1, 75 ppm, day 0 (inoculum plug)): 8.3 mm
coverage of the plates by the fungus ([3]; Batch 1, 75 ppm, day 4): 36.7% covered
diameter of Fusarium growth ([3]; Batch 1, 75 ppm, day 4): 23.7 mm
coverage of the plates by the fungus ([3]; Batch 1, 75 ppm, day 7): 60% covered
diameter of Fusarium growth ([3]; Batch 1, 75 ppm, day 7): 27.0 mm
growth, color and physical appearance ([3]; Batch 1, 75 ppm, day 11): Confluent, dark
diameter of Fusarium growth ([3]; Batch 1, 100 ppm, day 0 (inoculum plug)): 8.0 mm
coverage of the plates by the fungus ([3]; Batch 1, 100 ppm, day 4): 26.7% covered
diameter of Fusarium growth ([3]; Batch 1, 100 ppm, day 4): 23.7 mm
coverage of the plates by the fungus ([3]; Batch 1, 100 ppm, day 7): 46.7% covered
diameter of Fusarium growth ([3]; Batch 1, 100 ppm, day 7): 28.3 mm
coverage of the plates by the fungus ([3]; Batch 1, 100 ppm, day 11): 80% covered
growth, color and physical appearance ([3]; Batch 1, 100 ppm, day 11): Dark pink
diameter of Fusarium growth ([3]; Batch 1, 250 ppm, day 0 (inoculum plug)): 8.7 mm
diameter of Fusarium growth ([3]; Batch 1, 250 ppm, day 4): 16.0 mm
diameter of Fusarium growth ([3]; Batch 1, 250 ppm, day 7): 22.0 mm
coverage of the plates by the fungus ([3]; Batch 1, 250 ppm, day 11): 29.7% covered
growth, color and physical appearance ([3]; Batch 1, 250 ppm, day 11): Yellow broth
diameter of Fusarium growth ([3]; Batch 2, 25 ppm, day 0 (inoculum plug)): 7.8 mm
coverage of the plates by the fungus ([3]; Batch 2, 25 ppm, day 4): 76.7%
growth, color and physical appearance ([3]; Batch 2, 25 ppm, day 4): dark peach
coverage of the plates by the fungus ([3]; Batch 2, 25 ppm, day 6): 88.3%
growth, color and physical appearance ([3]; Batch 2, 25 ppm, day 6): pink
coverage of the plates by the fungus ([3]; Batch 2, 25 ppm, day 8): 91.7%
growth, color and physical appearance ([3]; Batch 2, 25 ppm, day 8): dark pink
coverage of the plates by the fungus ([3]; Batch 2, 25 ppm, day 11): 91.7%
growth, color and physical appearance ([3]; Batch 2, 25 ppm, day 11): dark pink
coverage of the plates by the fungus ([3]; Batch 2, 25 ppm, day 14): 91.7%
growth, color and physical appearance ([3]; Batch 2, 25 ppm, day 14): dark pink,
diameter of Fusarium growth ([3]; Batch 2, 50 ppm, day 0 (inoculum plug)): 7.5 mm
coverage of the plates by the fungus ([3]; Batch 2, 50 ppm, day 4): 43.3%
growth, color and physical appearance ([3]; Batch 2, 50 ppm, day 4): peach
coverage of the plates by the fungus ([3]; Batch 2, 50 ppm, day 6): 60%
growth, color and physical appearance ([3]; Batch 2, 50 ppm, day 6): pink
coverage of the plates by the fungus ([3]; Batch 2, 50 ppm, day 8): 61.7%
growth, color and physical appearance ([3]; Batch 2, 50 ppm, day 8): dark pink
coverage of the plates by the fungus ([3]; Batch 2, 50 ppm, day 11): 68.3%
growth, color and physical appearance ([3]; Batch 2, 50 ppm, day 11): dark pink
coverage of the plates by the fungus ([3]; Batch 2, 50 ppm, day 14): 55.0%
growth, color and physical appearance ([3]; Batch 2, 50 ppm, day 14): dark pink,
diameter of Fusarium growth ([3]; Batch 2, 75 ppm, day 0 (inoculum plug)): 8.0 mm
coverage of the plates by the fungus ([3]; Batch 2, 75 ppm, day 4): 13.3%
diameter of Fusarium growth ([3]; Batch 2, 75 ppm, day 4): 21.3 mm
growth, color and physical appearance ([3]; Batch 2, 75 ppm, day 4): peach
coverage of the plates by the fungus ([3]; Batch 2, 75 ppm, day 6): 40%
growth, color and physical appearance ([3]; Batch 2, 75 ppm, day 6): pink
coverage of the plates by the fungus ([3]; Batch 2, 75 ppm, day 8): 46.7%
growth, color and physical appearance ([3]; Batch 2, 75 ppm, day 8): pink
coverage of the plates by the fungus ([3]; Batch 2, 75 ppm, day 11): 61.7%
growth, color and physical appearance ([3]; Batch 2, 75 ppm, day 11): dark pink
coverage of the plates by the fungus ([3]; Batch 2, 75 ppm, day 14): 68.3%
growth, color and physical appearance ([3]; Batch 2, 75 ppm, day 14): dark pink,
diameter of Fusarium growth ([3]; Batch 2, 100 ppm, day 0 (inoculum plug)): 7.8 mm
diameter of Fusarium growth ([3]; Batch 2, 100 ppm, day 4): 22.3 mm
growth, color and physical appearance ([3]; Batch 2, 100 ppm, day 4): peach
diameter of Fusarium growth ([3]; Batch 2, 100 ppm, day 6): 20.0 mm
growth, color and physical appearance ([3]; Batch 2, 100 ppm, day 6): light peach
coverage of the plates by the fungus ([3]; Batch 2, 100 ppm, day 8): 30.3%
growth, color and physical appearance ([3]; Batch 2, 100 ppm, day 8): pink
diameter of Fusarium growth ([3]; Batch 2, 100 ppm, day 11): 37 mm
growth, color and physical appearance ([3]; Batch 2, 100 ppm, day 11): pink/yellow
diameter of Fusarium growth ([3]; Batch 2, 100 ppm, day 14): 42.7 mm
growth, color and physical appearance ([3]; Batch 2, 100 ppm, day 14): pink, fuzzy
diameter of Fusarium growth ([3]; Batch 2, 250 ppm, day 0 (inoculum plug)): 7.3 mm
diameter of Fusarium growth ([3]; Batch 2, 250 ppm, day 4): 17.0 mm
growth, color and physical appearance ([3]; Batch 2, 250 ppm, day 4): light peach
diameter of Fusarium growth ([3]; Batch 2, 250 ppm, day 6): 19.7 mm
growth, color and physical appearance ([3]; Batch 2, 250 ppm, day 6): very light
diameter of Fusarium growth ([3]; Batch 2, 250 ppm, day 8): 22 mm
growth, color and physical appearance ([3]; Batch 2, 250 ppm, day 8): dark peach
diameter of Fusarium growth ([3]; Batch 2, 250 ppm, day 11): 25.7 mm
growth, color and physical appearance ([3]; Batch 2, 250 ppm, day 11): yellow broth
diameter of Fusarium growth ([3]; Batch 2, 250 ppm, day 14): 35.0 mm
growth, color and physical appearance ([3]; Batch 2, 250 ppm, day 14): pink, fuzzy
diameter of Fusarium growth ([3]; Batch 3, 25 ppm, day 0 (inoculum plug)): 8.2 mm
coverage of the plates by the fungus ([3]; Batch 3, 25 ppm, day 4): 25% covered
diameter of Fusarium growth ([3]; Batch 3, 25 ppm, day 4): 26.3 mm
growth, color and physical appearance ([3]; Batch 3, 25 ppm, day 4): peach
coverage of the plates by the fungus ([3]; Batch 3, 25 ppm, day 7): 33.3% covered
diameter of Fusarium growth ([3]; Batch 3, 25 ppm, day 7): 24.7 mm
growth, color and physical appearance ([3]; Batch 3, 25 ppm, day 7): pink, fuzzy
coverage of the plates by the fungus ([3]; Batch 3, 25 ppm, day 11): 38.3%
diameter of Fusarium growth ([3]; Batch 3, 25 ppm, day 11): 31.3 mm
growth, color and physical appearance ([3]; Batch 3, 25 ppm, day 11): pink, fuzzy
coverage of the plates by the fungus ([3]; Batch 3, 25 ppm, day 14): 45.0% covered,
diameter of Fusarium growth ([3]; Batch 3, 25 ppm, day 14): 32.0 mm
growth, color and physical appearance ([3]; Batch 3, 25 ppm, day 14): pink, fuzzy
diameter of Fusarium growth ([3]; Batch 3, 50 ppm, day 0 (inoculum plug)): 7.5 mm
coverage of the plates by the fungus ([3]; Batch 3, 50 ppm, day 4): 28.3% covered
diameter of Fusarium growth ([3]; Batch 3, 50 ppm, day 4): 22.7 mm
growth, color and physical appearance ([3]; Batch 3, 50 ppm, day 4): peach
coverage of the plates by the fungus ([3]; Batch 3, 50 ppm, day 7): 41.7% covered
diameter of Fusarium growth ([3]; Batch 3, 50 ppm, day 7): 25.7 mm
growth, color and physical appearance ([3]; Batch 3, 50 ppm, day 7): pink, fuzzy
coverage of the plates by the fungus ([3]; Batch 3, 50 ppm, day 11): 41.7%
diameter of Fusarium growth ([3]; Batch 3, 50 ppm, day 11): 28.0 mm
growth, color and physical appearance ([3]; Batch 3, 50 ppm, day 11): pink, fuzzy
coverage of the plates by the fungus ([3]; Batch 3, 50 ppm, day 14): 48.3% covered,
diameter of Fusarium growth ([3]; Batch 3, 50 ppm, day 14): 29.3 mm
growth, color and physical appearance ([3]; Batch 3, 50 ppm, day 14): pink, fuzzy
diameter of Fusarium growth ([3]; Batch 3, 75 ppm, day 0 (inoculum plug)): 8.2 mm
diameter of Fusarium growth ([3]; Batch 3, 75 ppm, day 4): 25.2 mm
growth, color and physical appearance ([3]; Batch 3, 75 ppm, day 4): peach
diameter of Fusarium growth ([3]; Batch 3, 75 ppm, day 7): 32.7 mm
growth, color and physical appearance ([3]; Batch 3, 75 ppm, day 7): pink, fuzzy
diameter of Fusarium growth ([3]; Batch 3, 75 ppm, day 11): 41.0 mm
growth, color and physical appearance ([3]; Batch 3, 75 ppm, day 11): pink, fuzzy
coverage of the plates by the fungus ([3]; Batch 3, 75 ppm, day 14): 38.1% covered,
diameter of Fusarium growth ([3]; Batch 3, 75 ppm, day 14): 43.7 mm
growth, color and physical appearance ([3]; Batch 3, 75 ppm, day 14): pink, fuzzy
diameter of Fusarium growth ([3]; Batch 3, 100 ppm, day 0 (inoculum plug)): 8.7 mm
diameter of Fusarium growth ([3]; Batch 3, 100 ppm, day 4): 21.7 mm
growth, color and physical appearance ([3]; Batch 3, 100 ppm, day 4): peach
diameter of Fusarium growth ([3]; Batch 3, 100 ppm, day 7): 25.0 mm
growth, color and physical appearance ([3]; Batch 3, 100 ppm, day 7): pink, fuzzy
diameter of Fusarium growth ([3]; Batch 3, 100 ppm, day 11): 26.0 mm
growth, color and physical appearance ([3]; Batch 3, 100 ppm, day 11): pink, fuzzy
coverage of the plates by the fungus ([3]; Batch 3, 100 ppm, day 14): 34.9% covered,
diameter of Fusarium growth ([3]; Batch 3, 100 ppm, day 14): 26.7 mm
growth, color and physical appearance ([3]; Batch 3, 100 ppm, day 14): pink, fuzzy
diameter of Fusarium growth ([3]; Batch 3, 250 ppm, day 0 (inoculum plug)): 7.3 mm
diameter of Fusarium growth ([3]; Batch 3, 250 ppm, day 4): 12.2 mm
growth, color and physical appearance ([3]; Batch 3, 250 ppm, day 4): yellow
diameter of Fusarium growth ([3]; Batch 3, 250 ppm, day 7): 20 mm
growth, color and physical appearance ([3]; Batch 3, 250 ppm, day 7): peach, fuzzy
diameter of Fusarium growth ([3]; Batch 3, 250 ppm, day 11): 29.7 mm
diameter of Fusarium growth ([3]; Batch 3, 250 ppm, day 14): 38.7 mm
growth, color and physical appearance ([3]; Batch 3, 250 ppm, day 14): peach with yellow
inhibition of Fusarium ([3]; concentrations lower than 250 ppm, not as effective): some inhibition
